Patent publication US20230219963A1, “PYRROLO[2,3-D]PYRIMIDINE DERIVATIVES” (Pfizer Inc., priority 2020, published 2023)

Experiments:
Assay type in all cases: cell-based
IL-13 induced pSTAT6 = assay: IL-13-induced pSTAT6 in human keratinocytes; settings: Keratinocyte, JAK1/JAK2, read-out: IL-13 induced pSTAT6, cellular potency IC50
Description: (§1) Human whole blood was collected from healthy donors via vein puncture into Vacutainer collection tubes containing sodium heparin in accordance with Pfizer protocols (Protocol No. GOHW RDP-01) approved by the Shulman Institutional Review Board. Blood was warmed to 37° C. priorto use. Human whole blood was aliquoted (90 μL/well) in 96-well, deep-well, V-bottom plates and treated with compounds (5 μL/well) at different concentrations up to 60 μM (0.2% DMSO final) at 37° C. for 60 minutes. This was followed by a challenge with IFNα (5000 U/mL), IFNγ (100 ng/mL), IL-6 (50 ng/mL), IL-10 (30 ng/mL), IL-12 (30 ng/mL), IL-15 (30 ng/mL), IL-21 (50 ng/mL), IL-23 (25 ng/mL), IL-27 (1000 ng/mL), EPO (2 U/mL), TSLP (50 ng/mL) or PBS and incubated for 15 minutes. Anti-cell surface antibodies were added 15 minutes prior to cytokine stimulation; anti-CD3-BV421 (0.5 μL/well) to IL-6-treated and TSLP-treated samples and anti-CD14-BV421 (0.5 μL/well) to IFNγ-treated samples. Samples were treated with warm 1×Lyse/Fix buffer (700 μL/well) to terminate activation and further incubated at 37° C. for 20 minutes to lyse red blood cells. Plates were centrifuged at 300×g for 5 minutes, supernatant was aspirated, and cells were washed with 800 μL/well of staining buffer (D-PBS containing 0.1% FBS and 0.01% sodium azide). Washed cell pellets were resuspended in 350 μL/well of prechilled 90% methanol and incubated at 4° C. for 30 minutes. After the removal of 90% methanol, cells were washed once with staining buffer. […]
(§2) After overnight incubation at 4° C., anti-pSTAT stained samples were transferred into 96-well polypropylene U-bottom plates and flow cytometric analysis was performed on a LSR Fortessa™ equipped with a HTS plate loader. […] Background fluorescence was defined using unstimulated cells and a gate was placed at the foot of the peak to include ˜0.5% gated population. […]

IL-27 induced pSTAT3 = assay: IL-27-induced pSTAT3 in human whole blood (lymphocytes); settings: Lymphocyte, JAK1/JAK2, read-out: IL-27 induced pSTAT3, cellular potency IC50
Description: as §1, with “buffer. All samples were finally suspended in 150 μL/well of the desired anti-phospho-STAT antibodies at 1:150 dilution in staining buffer; anti-pSTAT1-AF647 in IFNγ treated samples; anti-pSTAT1-AF488 and anti-pSTAT3-AF647 in IL-6-treated samples, anti-pSTAT3-AF647 in IFNα, IL-10, IL-21, IL-23 and IL-27 treated samples, anti-pSTAT4-AF647 in IL-12 treated samples, anti-pSTAT5-AF-647 in EPO, IL-15 and TSLP-treated samples. Human primary keratinocytes were cultured in DermaLife™ medium with supplement kit to expand cell population. Cell passages 2 to 5 were used in the assays. Cells were harvested at ˜80% confluence, suspended in warm DermaLife™ medium, aliquoted (90 μL/well) in 96-well, deep-well, V-bottom plates, and incubated at 37° C. for 30 minutes. Cells were then treated with compounds (0.0003 to 20 μM) for 60 minutes and followed by stimulation with IL-4 (2 ng/mL) or IL-13 (20 ng/mL) at 37° C. for 15 minutes.” for “buffer.”
as §2

IL-22 induced pSTAT3 = assay: IL-22-induced pSTAT3 in human keratinocytes; settings: Keratinocyte, JAK1/TYK2, read-out: IL-22 induced pSTAT3, cellular potency IC50
TSLP induced pSTAT5 = assay: TSLP-induced pSTAT5 in human whole blood (CD3+ cells); settings: JAK1/JAK2, read-out: TSLP induced pSTAT5, cellular potency IC50
Description: as §1, §2

IL-21 induced pSTAT3 = assay: IL-21-induced pSTAT3 in human whole blood (lymphocytes); settings: Lymphocyte, JAK1/JAK3, read-out: IL-21 induced pSTAT3, cellular potency IC50
Description: as §1, with “buffer. All samples were finally suspended in 150 μL/well of the desired anti-phospho-STAT antibodies at 1:150 dilution in staining buffer; anti-pSTAT1-AF647 in IFNγ treated samples; anti-pSTAT1-AF488 and anti-pSTAT3-AF647 in IL-6-treated samples, anti-pSTAT3-AF647 in IFNα, IL-10, IL-21, IL-23 and IL-27 treated samples, anti-pSTAT4-AF647 in IL-12 treated samples, anti-pSTAT5-AF-647 in EPO, IL-15 and TSLP-treated samples. Human primary keratinocytes were cultured in DermaLife™ medium with supplement kit to expand cell population. Cell passages 2 to 5 were used in the assays. Cells were harvested at ˜80% confluence, suspended in warm DermaLife™ medium, aliquoted (90 μL/well) in 96-well, deep-well, V-bottom plates, and incubated at 37° C. for 30 minutes. Cells were then treated with compounds (0.0003 to 20 μM) for 60 minutes and followed by stimulation with IL-4 (2 ng/mL) or IL-13 (20 ng/mL) at 37° C. for 15 minutes.” for “buffer.”
as §2

IL-4 induced pSTAT6 = assay: IL-4-induced pSTAT6 in human keratinocytes; settings: Keratinocyte, JAK1/JAK2, read-out: IL-4 induced pSTAT6, cellular potency IC50
Description: as §1, §2

IC50 (IL-13 induced pSTAT6): 81.9 nM
IC50 (IL-27 induced pSTAT3): 228 nM
IC50 (IL-22 induced pSTAT3): 420 nM
IC50 (TSLP induced pSTAT5): 1020 nM
IC50 (IL-21 induced pSTAT3): 516 nM
IC50 (IL-4 induced pSTAT6): 77 nM
SMILES: CCCS(=O)(=O)N[C@H]1C[C@@H](N(C)c2ncnc3[nH]ccc23)C1 [Abrocitinib, N-((1S,3S)-3-(Methyl(7H-pyrrolo[2,3-d]pyrimidin-4-yl)amino)cyclo-butyl)propane-1-sulfonamide, reference compound]
